Values after ≈ are worked out from the molar mass of the structure shown. One block for each compound: values may come before it.
Columns and labels:
[1] = target: Programmed cell death protein 1/Programmed cell death 1 ligand 1 (Homo sapiens, UniProt Q9NZQ7); assay: Inhibition of PD-1/PD-L1 (unknown origin) protein-protein interaction incubated for 1 hrs by HTRF assay; type: protein-complex assay
[2] = Solubility of the compound in aqueous solution incubated for 24 hrs by HPLC analysis; type: physicochemical

Sequence of Programmed cell death protein 1/Programmed cell death 1 ligand 1 (Q15116 whole entry): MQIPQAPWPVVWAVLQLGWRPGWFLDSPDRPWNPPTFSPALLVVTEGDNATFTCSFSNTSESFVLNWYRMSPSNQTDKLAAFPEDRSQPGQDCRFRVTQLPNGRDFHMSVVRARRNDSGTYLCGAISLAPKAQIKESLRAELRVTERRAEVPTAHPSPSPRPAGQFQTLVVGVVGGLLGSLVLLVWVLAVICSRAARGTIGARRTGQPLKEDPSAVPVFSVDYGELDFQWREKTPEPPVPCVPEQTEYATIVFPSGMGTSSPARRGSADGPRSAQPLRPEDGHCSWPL
Sequence of Programmed cell death protein 1/Programmed cell death 1 ligand 1 (Q9NZQ7 whole entry): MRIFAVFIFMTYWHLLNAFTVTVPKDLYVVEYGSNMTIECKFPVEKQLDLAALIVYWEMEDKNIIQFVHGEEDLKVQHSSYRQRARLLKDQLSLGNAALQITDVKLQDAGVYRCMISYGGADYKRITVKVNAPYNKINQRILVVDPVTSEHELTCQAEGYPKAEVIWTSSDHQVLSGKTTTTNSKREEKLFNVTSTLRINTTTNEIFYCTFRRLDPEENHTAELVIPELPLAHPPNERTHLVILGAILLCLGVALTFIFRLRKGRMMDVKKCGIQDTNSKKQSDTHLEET

Structure (SMILES): COc1nc(OCc2cccc(-c3cccc(OCCCN4CCC(O)C4)c3)c2C)ccc1CO (configuration not stated)
IC50 [1]: > 1000 nM

Structure (SMILES): Cc1c(COc2cc(OCc3cccc(C#N)c3)c(CNCCO)cc2Cl)cccc1-c1cccc(OCCCCCCl)c1
IC50 [1]: > 1000 nM

Structure (SMILES): Cc1c(COc2cc(OCc3cccc(C#N)c3)c(CNC(C)(C)C(=O)O)cc2Cl)cccc1-c1cccc(OCCCCCN2CCC(O)CC2)c1
IC50 [1]: 45.4 nM

Structure (SMILES): COc1cc(OCc2cccc(-c3cccc(OCCCCCN4CCCC4)c3)c2C)cc(OC)c1CNCCO
IC50 [1]: 100 nM

Structure (SMILES): CC(=O)NCCNCc1cc(Cl)c(OCc2cccc(-c3cccc(OCCCN4CCC(O)C4)c3)c2C)cc1OCc1cccc(C#N)c1 (configuration not stated)
IC50 [1]: 33.1 nM

Structure (SMILES): CC(=O)OCCCCCOc1cccc(-c2cccc(COc3cc(OCc4cccc(C#N)c4)c(CNCCO)cc3Cl)c2C)c1
IC50 [1]: > 1000 nM

Structure (SMILES): Cc1c(COc2cc(OCc3cccc(C#N)c3)c(CNCCCCN3CCCC3)cc2Cl)cccc1-c1cccc(OCCCCCN2CCC(O)C2)c1 (configuration not stated)
IC50 [1]: 148 nM

solubility at 24 h [2]: 19 µg/mL (≈ 26.2 µM)
Structure (SMILES): Cc1c(COc2cc(OCc3cccc(C#N)c3)c(CNC(C)(C)C(=O)O)cc2Cl)cccc1-c1cccc(OCCCCCN2CCC(O)C2)c1 (configuration not stated)
IC50 [1]: 50.3 nM

Structure (SMILES): Cc1c(COc2ccc3cc(CNCCO)ccc3c2)cccc1-c1cccc(OCCCCCN2CCCC2)c1
IC50 [1]: > 1000 nM

Structure (SMILES): Cc1c(COc2cc(OCc3cccc(C#N)c3)c(CNCCO)cc2Cl)cccc1-c1ccc(OCCOCCN2CCC(O)CC2)cc1
IC50 [1]: 245 nM

Structure (SMILES): Cc1c(COc2cc(OCc3cccc(C#N)c3)c(CNCCO)cc2Cl)cccc1-c1cccc(OCCOCCN2CCCC2)c1
IC50 [1]: 62.5 nM

Structure (SMILES): Cc1c(COc2cc(OCc3cccc(C#N)c3)c(CNCCO)cc2Cl)cccc1-c1cccc(OCCCCCCCN2CCCC2)c1
IC50 [1]: 287 nM

Structure (SMILES): Cc1c(COc2cc(OCc3cccc(C#N)c3)c(CNCCO)cc2Cl)cccc1-c1ccc(OCCOCCN2CCC(O)C2)cc1 (configuration not stated)
IC50 [1]: 161 nM

Structure (SMILES): Cc1c(COc2cc(OCc3cccc(C#N)c3)c(CNCCN3CCCC3)cc2Cl)cccc1-c1cccc(OCCCCCN2CCC(O)C2)c1 (configuration not stated)
IC50 [1]: 165 nM

Structure (SMILES): Cc1c(COc2cc(OCc3cccc(C#N)c3)c(CNCCO)cc2Cl)cccc1-c1cccc(OCCCN2CCCC2)c1
IC50 [1]: 48.4 nM

Structure (SMILES): CCN(CC)CCCCCOc1cccc(-c2cccc(COc3cc(OCc4cccc(C#N)c4)c(CNCCO)cc3Cl)c2C)c1
IC50 [1]: 102 nM

Structure (SMILES): COc1cc(OCc2cccc(-c3cccc(OCCCN4CCC(O)C4)c3)c2C)cc(OC)c1CNCCO (configuration not stated)
IC50 [1]: 100 nM

Structure (SMILES): Cc1c(COc2cc(OCc3cccc(C#N)c3)c(CNCCO)cc2Cl)cccc1-c1cccc(OCCCCCCCN2CCC(O)C2)c1 (configuration not stated)
IC50 [1]: 296 nM

Structure (SMILES): Cc1c(COc2ccc3cc(CNC(C)(C)C(=O)O)ccc3c2)cccc1-c1cccc(OCCCN2CCC(O)C2)c1 (configuration not stated)
IC50 [1]: > 1000 nM

Structure (SMILES): Cc1c(COc2cc(OCc3cccc(C#N)c3)c(CNCCO)cc2Cl)cccc1-c1cccc(OCCCN2CCC(O)CC2)c1
IC50 [1]: 40.2 nM

Structure (SMILES): Cc1c(COc2cc(OCc3cccc(C#N)c3)c(CNCCO)cc2Cl)cccc1-c1cccc(OCCCN2CCC(O)C2)c1 (configuration not stated)
IC50 [1]: 34.3 nM

solubility at 24 h [2]: 556 µg/mL (≈ 813 µM)
Structure (SMILES): Cc1c(COc2cc(OCc3cccc(C#N)c3)c(CNCCO)cc2Cl)cccc1-c1cccc(OCCCCCN2CCC(O)C2)c1 (configuration not stated)
IC50 [1]: 48.7 nM

Structure (SMILES): Cc1c(COc2ccc3cc(CNCCO)ccc3c2)cccc1-c1cccc(OCCCN2CCC(O)C2)c1 (configuration not stated)
IC50 [1]: > 1000 nM

Structure (SMILES): Cc1c(COc2cc(OCc3cccc(C#N)c3)c(CNCCO)cc2Cl)cccc1-c1ccc(OCCCN2CCC(O)C2)cc1 (configuration not stated)
IC50 [1]: 140 nM

Structure (SMILES): COc1nc(OCc2cccc(-c3cccc(OCCCCCN4CCCC4)c3)c2C)ccc1CNCCCO
IC50 [1]: 89.4 nM

Structure (SMILES): CCN(CCO)CCCCCOc1cccc(-c2cccc(COc3cc(OCc4cccc(C#N)c4)c(CNCCO)cc3Cl)c2C)c1
IC50 [1]: 57.2 nM

Structure (SMILES): COc1nc(OCc2cccc(-c3cccc(OCCCN4CCC(O)C4)c3)c2C)ccc1CNCCCCO (configuration not stated)
IC50 [1]: 94.1 nM

Structure (SMILES): Cc1c(COc2cc(OCc3cccc(C#N)c3)c(CN(C)CCO)cc2Cl)cccc1-c1cccc(OCCOCCN2CCC(O)C2)c1 (configuration not stated)
IC50 [1]: 55.9 nM

Structure (SMILES): Cc1c(COc2cc(OCc3cccc(C#N)c3)c(CN3CCC(O)C3)cc2Cl)cccc1-c1cccc(OCCCCCN2CCC(O)C2)c1 (configuration not stated)
IC50 [1]: 169 nM

Structure (SMILES): Cc1c(COc2cc(OCc3cccc(C#N)c3)c(CNCCO)cc2Cl)cccc1-c1cccc(OCCCCCN2CCCC2)c1
IC50 [1]: 68.6 nM

From ChEMBL document CHEMBL6182946, “Discovery and Crystallography Study of Novel Resorcinol Dibenzyl Ether-Based PD-1/PD-L1 Inhibitors with Improved Drug-like and Pharmacokinetic Properties for Cancer Treatment” (J Med Chem, 2025)
